We go through one molecule from patent publication US20010041801A1, “Water soluble fullerenes with antiviral activity” (The Regents of the University of California, priority 1994, published 2001).

“Also recorded” adds a separate entry of the source. Where two headings read alike, the source gives them in different places.

Data set [1] concerns the target T1, HIV-1 protease (HIVP) (Human immunodeficiency virus type 1 group M subtype B, UniProt P04585).
T1 construct: HIV produces a small, dimeric aspartyl protease which specifically cleaves the polyprotein precursors
Briefly: Inhibition of HIV-1 protease, HPLC assay with kinetic analysis. Type of data set: biochemical. As to the method: The ability of compound 2c to inhibit the HIVP was assayed with an HPLC method as described in R. L DesJarlais, et al., Proc. Natl. Acad. Sci U.S.A., 87:6644-6648, 1990. […] Assays were performed in buffer containing 50 mM NaAc pH 5.5, 1.0 M NaCl, 5% glycerol, 1% DMSO, and 2 mM EDTA. Inhibitor was preincubated with ≈0.05 μg of enzyme for 5 minutes at which time the reaction was initiated by addition of substrate. The reaction was quenched at <15% product formation by the addition of 15 μL of 10% TFA. The cleavage products of the substrate peptide H-Lys-Ala-Arg-Val-Tyr-p-nitro-Phe-Glu-Ala-Ile-NH2 (made by Bachem, Philadelphia, Pa.) were assayed by HPLC using a 10-40% (acetonitrile, 0.1% TFA): (water, 0.1% TFA) gradient over 30 minutes at 1 mL/minute. Product was quantitated by integration of peak areas followed by comparison to product standard curves.
Determination of kinetic constants was done with the program KinetAsyst (IntelliKinetics) by fitting of the data to the equation […]] which describes competitive inhibition.

Data set [2] can be described thus: Cytotoxicity in uninfected PBMC. The format is cell-based, human. As to conditions: human, uninfected PBMC; thymidine uptake day 2 and cell counts day 6.
Data set [3] relates to PBMC. Briefly: Cytotoxicity in uninfected PBMC. The format is cell-based, human. As to conditions: b68: up to 100 μM.
Data set [4] in a line: Cytotoxicity in H9 cells. Type of data set: cell-based, human. As to conditions: human, H9 cells; cell counts on day 6.
Data set [5] concerns H9 cells. Briefly: Cytotoxicity in H9 cells. The format is cell-based, human. Particulars: b68: up to 100 μM.
Data set [6] in a line: Cytotoxicity in CEM cells. Type of data set: cell-based. As to conditions: human, CEM cells; cell counts on day 6.
Data set [7] deals with CEM cells. Briefly: Cytotoxicity in CEM cells. Type of data set: cell-based. Particulars: b68: up to 100 μM.
The test system of data set [8] is HIV-1. In words: HIV-1 p24 antigen assay in supernatants of acutely infected PBMC. The format is cell-based. Particulars: Human immunodeficiency virus 1; PBMC acutely infected with HIV-1. As for the experimental part:
To determine whether the fullerene may bind tightly to inactivate the viral RT, we also measured levels of HIV-1 p24 in supernatants of treated and untreated cultures. Clarified supernatants were treated with Triton X-100 (Sigma Chemicals, St. Louis, Mo.) and tested for HIV-1 antigen by immunocapture with a commercial kit (Abbott, North Chicago, Ill.).

The subject of data set [9] is HIV-1LAI. Briefly: Virus inactivation assay with cell-free virus. The format is cell-based. Particulars: 5 to 25 μM; cell-free virus incubated 2 hours at 37° C.; RT assay day 6. As to the method: Cell culture evaluation techniques well known in the art can also be used to determine the antiviral and antivirucidal properties of the compounds of this invention. For instance about 200 50% tissue culture infective doses of the virus to be tested and 2 ml of the compound to be tested are incubated for 2 hours at 37° C. After incubation, a growth medium is added to each tube and the tube is centrifuged at about 40,000 rpm for 30 minutes at 4° C. The supernatant is removed and the virus pellet is resuspended in fresh medium. The virions are added to human PBMC that has been stimulated for 2 days with phytohemagglutinin in 25 cm^2 flasks in a total of 10 ml of growth medium. After about six days, residual virus in the supernatant are quantitated by an RT assay such as that described by R. F. Schinazi, et al., Antimicrob. Agents Chemother., 36:2423-2431, 1992, or in Current Protocols in Molecular Biology, Ed. by F. M. Ausubel, Current Protocols, Vol. 1, §9.13.3 and in Example 8, Table 2 below.
To confirm these findings, inactivation studies with HIV-1LAI were performed. […] On day 6, residual virus in the supernatant was quantitated by an RT assay, as described previously (R. F. Schinazi, et al., Antimicrob. Agents Chemother., 36:2423-2431, 1992). […]

For data set [10], the system named is HIV-1 and HIV-2. Briefly: Antiviral activity in acutely or chronically infected human lymphocytes (summary statements). Type of data set: cell-based. An excerpt:
The water soluble C60 derivatives for inactivating HIV by interacting with HIV by Van der Waals contacts with the nonpolar HIVP surface, are substituted symmetrically with organic moieties comprising from 1 to about 20 carbon atoms each and optionally further comprising polar heteroatoms, such as oxygen and nitrogen. The preferred fullerene derivatives are diamino derivatives synthesized in three steps from C60 via a suitably substituted diphenyldiazomethane. High-resolution mass spectrometric analysis of these compounds is possible only under the mild conditions of matrix-assisted laser desorption/ionization Fourier transform mass spectrometry. Direct infrared or ultraviolet laser desorption degrades the compounds so that only C60 ions are observed, in either positive or negative mode. Virus inactivation assays are provided for confirming activity of the C60 derivatives against human immunodeficiency virus type 1 (HIV-1) and HIV-2. […] Inhibition of protease (HIVP) and reverse transcriptase (HIVRT) is also shown.
The therapeutic and prophylactic efficacy of the compounds of this invention has been shown by in vitro assays. […]

In the case of `O=C(O)CCC(=O)NCCc1ccc(C2(c3ccc(CCNC(=O)CCC(=O)O)cc3)C34c5c6c7c8c9c%10c(c%11c%12c3c3c5c5c%13c6c6c7c7c9c9c%14c%10c%10c%11c%11c%12c%12c3c3c5c5c%13c%13c6c6c7c9c7c9c%14c%10c%10c%11c%11c%12c3c3c5c5c%13c6c7c6c9c%10c%11c3c56)C824)cc1` [Compound 2c, bis(monosuccinimide) derivative of p,p′-bis(2-aminoethyl)diphenyl-C60], the affinity in [1], expressed as Ki, was 5.3 µM. For the same molecule, in data set [1] (kinetic analysis of HIVP), the mode of inhibition entry is recorded as “competitive”. The IC50 in data set [2] was more than 100 µM. In addition, the “cytotoxicity in uninfected PBMC (words)” value in [3] is “No cytotoxicity; also recorded: noncytotoxic”; in data set [3] (listed as bis(monosuccinimide) derivative of p,p′-bis(2-aminoethyl)-diphenyl) it was “no cytotoxicity”. Also, the IC50 at 6 days in data set [4] and in data set [6] was more than 100 µM each time. For the same molecule, the “cytotoxicity in H9 cells” value in [5] was “No cytotoxicity; also recorded: noncytotoxic”. Besides, the “cytotoxicity in CEM cells” value in data set [7] is “No cytotoxicity; also recorded: noncytotoxic”. Besides, the EC50 in data set [8] was 50 µM; in data set [10] (Human immunodeficiency virus 1, H9, HIV-1, summary, read-out: EC50, acutely and chronically HIV-1 infected PBMC and chronically infected H9 cells), 7 µM; in data set [10] (Lymphocyte, average over assays, read-out: EC50 averaging, HIV-1 and HIV-2 in acute or chronically infected human lymphocytes) it was approximately 6 µM. For the same molecule, the “reduction of virus infectivity relative to untreated control” value in [9] is reported as “more than 95%”.
